One may read the IC50 as the concentration that inhibits the measured activity by half.

What all share (format): cell-based, human
The subject of one experiment is HL-60 cell line. Nature of the experiment: Testing on HL-60 leukemia cell line (MTT cytotoxicity). To be noted: HL-60 cells, medium with 20% fetal bovine serum, preliminary screening, read-out: HL60 (APL) IC50. Here is the method: (§1) Retinoates of harringtonines described in this invention were tested on K562 cell line which is derived from the pleural effusion of a person with chronic myelogenous leukemia (CML, bcr-abl positive) in terminal blast crises (Lozzio and Lozzio, Blood, 1975, p321). The cell line was purchased from ATCC (American Tissue Culture Collection) and grown in RPMI medium supplemented with 10% heat-inactivated fetal calf serum, 2 mmol/L glutamine, […] penicillin and […] streptomycin. All tested products were initially dissolved in 2N HCl (pH=2) (alkaloid base) or in aqueous solvent (salt) or in DMSO (retinoids), supplemented with ultrasound treatment during 1 h. Working concentrations were made by dilution in culture medium (pH 7). Cells in exponential growth phase were placed into 96-microwell plates in concentration 3x10^4/mL (total volume 200 µL/well) and incubated with drugs for 72 h at 37° C. in 5% CO2 humidified atmosphere. Following incubation, 28 µL of MTT 3-(4,5 dimethylthiazol-2-yl)-2,5 tetrazolium bromide] dye solution (Sigma, St. Louis, Mo.) was added to each well. During the following 6 h of incubation at 37° C., the purple formazan product was formed by conversion of the yellow MTT salt in the mitochondria of the viable cells. The resulting precipitate was dissolved in DMSO and the amount of converted MTT was quantified in an ELISA reader (MR 5000, Dynatech). Each product was tested in triplicate (3x8 wells). Every test contained at least one plate with HHT as control, added in the same concentration as the tested products.
Retinoates of harringtonines described in this invention were tested on HL-60 cell line, derived from acute promyelocytic leukemia (APL) cells. HL-60 is a promyelocytic cell line derived by S.J. Collins, et al. (Proc. Natl. Acad. Sci. USA 1978 p2458). Peripheral blood leukocytes were obtained by leukopheresis from a person with APL (Gallagher R, et al. Blood 1978, p713) The cell line was purchased from ATCC (American Tissue Culture Collection) and the base growth medium was also completed with fetal bovine serum but at a final concentration of 20%, otherwise the same method than the one of example 10 was used.
Preliminary screening using this tumor cell lines are gathered in table 1.

The next experiment has as its system K562 cell line. As to the kind of experiment: Testing on K562 leukemia cell line (MTT cytotoxicity). As to conditions: K562 cells, 72 h incubation, preliminary screening, read-out: K562 (CML) IC50. The method, then:
as §1

The next experiment deals with MDA-MB-468. Nature of the experiment: Testing on breast cancer cell lines, sulforhodamine B (SRB) cell viability assay. To be noted: MDA-MB-468 breast cancer cells, preliminary screening, read-out: M DA-MB-468 (BC) IC50. The method, then:
Operating Procedure were performed as described in the recent paper of Yakhni et al [Yakhni AM J CANCER RES 2019; 9(5) in press "Homoharringtonine, on approved anti-leukemia drug, suppresses triple negative breast cancer growth through a rapid reduction of anti-apoptotic protein abundance"]
The cell lines used in this study were MDA-MB-231 (ATCC® HTB-26™), MDA-MB-468 (ATCC® HTB-132™), MDA-MB-157 (ATCC® HTB-24™) and CAL-51. Those lines were chosen to represent the BRCA1/2 non-mutated TNBC transcriptomic subtypes, currently most in need of efficacious treatment due to lower sensibility of BRCA1 wild-type TNBC to the DNA-damaging chemotherapy (Masuda et al., Clin Cancer Res. 2013, p5533; Jiang et al., PLoS Med. 2016, pe1002193; Park et al. ESMO Open. 2018, pe000357). CAL-51 line represents the mesenchymal transcriptomic subtype whereas MDA-MB-157 and MDA-MB-231 represent the mesenchymal stem-like subtype (Lehmann et al. J Clin Invest. 2011, p2750). MDA-MB-468 was used as a model of aggressive, PTEN-negative TNBC, with hyperactivated EGFR signaling pathway due to EGFR amplification (Filmus et al., Biochem Biophys Res Commun. 1985, p898). MDA-MB-468 transcriptome classifies it into the basal-like 1 subtype (49). The MDA lines were purchased from the American Type Culture Collection (ATCC, Manassas, VA, USA). The CAL-51 was kindly provided by Dr Gerard Milano, from the Centre Antoine Lacassagne, Nice, France, where the line has been established (Gioanni et al., Br J Cancer 1990, p8). After initial expansion, the cell line stock vials were conserved, in liquid nitrogen, at the Biological Resource Center of Jean Perrin Comprehensive Cancer Center (biobank ID BB-0033-00075, Clermont-Ferrand, France). The MDA cell lines were cultured in the Leibovitz L-15 medium, whereas CAL-51 line was maintained in DMEM (both media from Invitrogen Life Technologies, Carlsbad, CA, USA). The media were supplemented with 10% heat-inactivated fetal bovine serum and […] gentamicin. CAL-51 line was kept at 37°C, in a humidified atmosphere with 5% CO2; the MDA lines were kept under the same conditions, however, without CO2, in a free gas exchange with atmospheric air. All cell lines were maintained in monolayer culture, in the sub-confluent status, with no more 30 passages of the cells thawed from the stock vial.
Homoharringtonine was supplied by LeukePharma Inc. (Houston, TX, USA) as water-soluble, crystalline tartaric acid salt. Initial stock solution of HHT-tartrate was prepared at 10 mM in sterile deionized water, aliquoted and kept at -80°C. For each experiment, a fresh HHT solution was prepared by dissolving the HHT stock in phosphate-buffered saline (PBS, GIBCO™, Invitrogen, Cergy-Pontoise, France).
Cell viability was assessed using the sulforhodamine B (SRB) assay (Sigma-Aldrich, St Louis, MO, USA) according to the method described by Vichai and Kirtikara (Nat Protoc. 2006, p1112). Cells were seeded in 96-well plates, at 5x10^3 or 1x10^3 cells/well (the MDA cell lines and CAL-51, respectively), left overnight to adhere and then treated with growing concentrations of HHT for 24h, 48h or 72h. After incubation with the drug, cells were washed twice with PBS and left for 72 h in the corresponding complete culture medium. Then the cells were fixed with trichloroacetic acid (final concentration 10%) at 4°C for 1 h, followed with plate washing with water five times, air drying and staining with 0.4% SRB dissolved in 1% acetic acid, at room temperature, for 30 min. The plates were subsequently washed four times with 1% acetic acid to remove unbound stain. To solubilize the protein-bound dye, 10 mM Tris base solution was added to each well. The cell viability, estimated through the present protein biomass, was determined by measuring optical density of the dye, using a spectrophotometer at wavelength of 540 nm (BMG Labtech, Ortenberg, Germany).
Preliminary screening using these tumor cell lines are gathered in table 1.

Some results are limits rather than exact numbers.

In the case of OP5215, Am 580 salt [Example 27], the IC50 with HL-60 cell line is less than 20 nM; in the experiment with K562 cell line, less than 10 nM; in the experiment on MDA-MB-468, less than 10 nM.

OP5215 bexarotenoate [Example 29]: the IC50 is less than 20 nM in the experiment with HL-60 cell line, less than 10 nM in the experiment with K562 cell line and less than 10 nM with MDA-MB-468.

Consider `COC(=O)CC(O)(CCCC(C)(C)O)C(=O)OC1C(OC)=CC23CCCN2CCc2cc4c(cc2C13)OCO4.COc1cc(C)c(C=CC(C)=CC=CC(C)=CC(=O)O)c(C)c1C` (stereo not drawn) [Example 4, homoharringtonine "acitretinoate"], for which the IC50 was less than 100 nM with HL-60 cell line and less than 50 nM with K562 cell line.

As for `COC(=O)C[C@](O)(CCC(C)(C)O)C(=O)O[C@@H]1C(OC)=C[C@]23CCCN2CCc2cc4c(cc2[C@H]13)OCO4.COc1ccc(-c2ccc3cc(C(=O)O)ccc3c2)cc1C12CC3CC(CC(C3)C1)C2` [Example 9, harringtonine "adapalenoate"], the IC50 in the experiment with K562 cell line is less than 100 nM.

Regarding `COC(=O)CC(O)(CCCC(C)(C)O)C(=O)OC1C(OC)=CC23CCCN2CCc2cc4c(cc2C13)OCO4.O=C(O)C=Cc1ccc(-c2ccc(O)c(C34CC5CC(CC(C5)C3)C4)c2)cc1` (stereo not drawn) [Example 6, homoharringtonine "adarotenoate"], the IC50 in the experiment with HL-60 cell line was less than 100 nM; with K562 cell line it was less than 50 nM.

As for `CC(=Cc1ccc(C(=O)O)cc1)c1ccc2c(c1)C(C)(C)CCC2(C)C.COC(=O)CC(O)(CCCC(C)(C)O)C(=O)OC1C(OC)=CC23CCCN2CCc2cc4c(cc2C13)OCO4` (stereo not drawn) [Example 13, homoharringtonine arotinoate], the IC50 in the experiment with K562 cell line was less than 50 nM.

Turning to `C=C(c1ccc(C(=O)O)cc1)c1cc2c(cc1C)C(C)(C)CCC2(C)C.COC(=O)C[C@](O)(CCCC(C)(C)O)C(=O)O[C@@H]1C(OC)=C[C@]23CCCN2CCc2cc4c(cc2[C@H]13)OCO4` [Example 7, homoharringtonine "bexarotenoate"], the IC50 in the experiment on HL-60 cell line, in the experiment with K562 cell line and in the experiment on MDA-MB-468 was less than 20 nM each time.

`COC(=O)CC(O)(CCCC(C)(C)O)C(=O)O[C@@H]1C(OC)=C[C@]23CCCN2CCc2cc4c(cc2[C@H]13)OCO4.O=C(O)c1ccc(-c2ccc3cc(O)c(C45CC6CC(CC(C6)C4)C5)cc3c2)cc1` (stereo partly drawn) [Example 12, Butanedioic acid, 2-hydroxy-2-(4-hydroxy-4-methylpentyl)-, 1-[(1S,3aR,14bS)-1,5,6,8,9,14b-hexahydro-2-methoxy-4H-cyclopenta[a][1,3]dioxolo[4,5-h]pyrrolo[2,1-b][3]benzazepin-1-yl]4-methyl ester, 4-(6-Hydroxy-7-tricyclo[3.3.1.1^3,7]dec-1-yl-2-naphthalenyl)benzoate]: the IC50 is less than 100 nM with HL-60 cell line, less than 50 nM in the experiment on K562 cell line and less than 50 nM in the experiment with MDA-MB-468.

Take `COC(=O)CC1(C(=O)OC2C(OC)=CC34CCCN3CCc3cc5c(cc3C24)OCO5)CCCC(C)(C)O1.COc1cc(C)c(C=CC(C)=CC=CC(C)=CC(=O)O)c(C)c1C` (stereo not drawn) [Example 19, anhydrohomoharringtonine "acitretinoate"]: the IC50 in the experiment with K562 cell line and in the experiment on MDA-MB-468 was greater than 100 nM each time.

As for `COC(=O)C[C@](O)(CCCC(C)(C)O)C(=O)O[C@@H]1C(OC)=C[C@]23CCCN2CCc2cc4c(cc2[C@H]13)OCO4.COc1ccc(-c2ccc3cc(C(=O)O)ccc3c2)cc1C12CC3CC(CC(C3)C1)C2` [Example 8, homoharringtonine "adapalenoate"], the IC50 in the experiment with HL-60 cell line is less than 100 nM; in the experiment with K562 cell line, less than 50 nM; in the experiment on MDA-MB-468 it was less than 50 nM.

Take `CC1(C)CCC(C)(C)c2cc(C(=O)Nc3ccc(C(=O)O)cc3)ccc21.COC(=O)C[C@](O)(CCCC(C)(C)O)C(=O)O[C@@H]1C(OC)=C[C@]23CCCN2CCc2cc4c(cc2[C@H]13)OCO4` [Example 23, homoharringtonine Am 580 salt]: the IC50 was less than 100 nM in the experiment on HL-60 cell line, less than 50 nM in the experiment with K562 cell line and less than 50 nM in the experiment with MDA-MB-468.

As for `CC(=Cc1ccc(C(=O)O)cc1)c1ccc2c(c1)C(C)(C)CCC2(C)C.COC(=O)CC(O)(CCC(C)(C)O)C(=O)OC1C(OC)=CC23CCCN2CCc2cc4c(cc2C13)OCO4` (stereo not drawn) [Example 14, harringtonine arotinoate], the IC50 with K562 cell line is less than 100 nM.

On to `COC(=O)CC(O)(CCCC(C)(C)O)C(=O)O[C@@H]1C(OC)=C[C@]23CCCN2CCc2cc4c(cc2[C@H]13)OCO4.Cc1ccc(C2=CCC(C)(C)c3ccc(C#Cc4ccc(C(=O)O)cc4)cc32)cc1` (stereo partly drawn) [Example 16, Butanedioic acid, 2-hydroxy-2-(4-hydroxy-4-methylpentyl)-, 1-[(1S,3aR,14bS)-1,5,6,8,9,14b-hexahydro-2-methoxy-4H-cyclopenta[a][1,3]dioxolo[4,5-h]pyrrolo[2,1-b][3]benzazepin-1-yl]4-methyl ester, 4-[[5,6-dihydro-5,5-dimethyl-8-(4-methylphenyl)-2-naphthalenyl]ethynyl]benzoate], for which the IC50 in the experiment on HL-60 cell line is less than 100 nM; with K562 cell line, less than 50 nM.

`COC(=O)CC(O)(CCC(C)(C)O)C(=O)OC1C(OC)=CC23CCCN2CCc2cc4c(cc2C13)OCO4.COc1cc(C)c(C=CC(C)=CC=CC(C)=CC(=O)O)c(C)c1C` (stereo not drawn) [Example 17, harringtonine acitretinate]: the IC50 in the experiment with HL-60 cell line is less than 100 nM; in the experiment with K562 cell line, less than 50 nM.

With `CC(C=CC1=C(C)CCCC1(C)C)=CC=CC(C)=CC(=O)O.COC(=O)CC(O)(CCC(C)(C)O)C(=O)OC1C(OC)=CC23CCCN2CCc2cc4c(cc2C13)OCO4` (stereo not drawn) [Example 2, harringtonine all-trans-retinoate], the IC50 is greater than 100 nM in the experiment on HL-60 cell line and less than 100 nM with K562 cell line.

Consider OP5215 all-trans-retinoate [Example 24], for which the figures for the IC50 with HL-60 cell line and in the experiment with K562 cell line were less than 100 nM and less than 50 nM, respectively.

In the case of `CC(C=CC1=C(C)CCCC1(C)C)=CC=CC(C)=CC(=O)O.COC(=O)CC(O)(CCCC(C)(C)O)C(=O)OC1C(OC)=CC23CCCN2CCc2cc4c(cc2C13)OCO4` (stereo not drawn) [Example 3, homoharringtonine 13-cis-retinoate], in the experiment with K562 cell line, the IC50 is less than 50 nM.

The values are drawn from patent EP3763715A1, “HARRINGTONINES SALTS, IN PARTICULAR RETINOATES, THEIR PROCESS OF PREPARATION AND THEIR USES IN THE TREATMENT OF LEUKEMIAS, CANCERS, AUTOIMMUNE, SKIN, ALZHEIMER'S AND INFLAMMATORY BOWEL DISEASES AND VIRAL INFECTIONS, COMBINED WITH MYELOPOIESIS STIMULATING AGENTS” (Robin, Jean-Pierre, priority 2019, dated 2021).
